Several values for one entry are separate records, joined by “and”; a condition that tells them apart may be missing. Equal values may be shown once. Read-outs that look alike come from different tables or passages of the source.
Tests used:
[1] = In vivo bioconcentration test OECD TG 305, carp; design: species or system Cyprinus carpio; settings: common carp (Cyprinus carpio); for concentration at 40 d: day 40 (depuration); for concentration at 44 d: day 44 (depuration)
Description: (§1) In vivo BCF values for MXC and BaP in carp and trout were determined in bioconcentration tests with both species in accordance to OECD TG 305 ([OECD, 2012]). The studies were approved by the State Agency for Nature, Environment and Consumer Protection (LANUV) North Rhine-Westphalia. The fish were exposed to a single concentration of both test items in a flow-through system for 35 days. No control groups were used. Dosing was performed by a solid-phase desorption system which was integrated in the fresh water supply allowing for a constant delivery of test concentrations to the fish chambers. The procedure of column generated concentrations was described in detail by [Schlechtriem et al. (2017)]. For the present study, two packed columns containing each 500 g Florisil® loaded with 200 mg of either MXC or BaP were used for each fish chamber. The uptake (exposure) phase of the study was followed by a 35 days depuration phase in uncontaminated water. The flow-through rate was maintained at 38.6 L/h for carp and 30.1 L/h for trout throughout the test. […] Additional 2-4 fish were sampled each, at the start and at the end of the exposure period, as well as at the end of the depuration period for lipid analysis. The total lipid content of the fish was measured individually by gravimetric analysis according to [Smedes (1999)].
(§2) Water samples (400 ml) were taken from the test chambers at least three times per week. Preparation for chemical analysis was performed by liquid-liquid extraction using n-hexane (10 ml) containing deuterated MXC (35 ng). The purified organic phase was subdivided into two equal parts and evaporated to dryness under a stream of nitrogen. One part of the residue was dissolved in 200 µL DCM for MXC analysis. The other part was mixed with 1 ml ACN: water (8:2, v/v) and subjected to BaP analysis. Whole fish samples were prepared for chemical analysis individually. After grinding the tissue with the addition of dry ice in a Thermomix™ 31 (Vorwerk), the finely powdered homogenate was lyophilized using an AdVantage freeze dryer (Ismatec). Aliquots of the dry samples (0.5 g) were spiked with deuterated internal standards (5 ng MXC-d6 and 0.2 ng BaP-d12) and extracted three times with acetone: DCM (1:1, v/v) (10 ml). The pooled extracts were then extracted with ultra-pure water (45 ml) and mixed with sodium chloride (5 g) to remove acetone and matrix. The organic phase was concentrated (0.5 ml) and dissolved in cyclohexane: DCM (1:1, v/v) (4.2 ml). This was subjected to gel permeation chromatography (GPC) (GILSON system equipped with pump 307, syringe pump 402, GX-271 liquid handler, 508 interface module, and Trilution® LC software; column i. d. 1.5 cm, material Bio-Beads S-X3, 200–400 mesh, Bio-Rad, flow rate 2 ml/min). Eluates containing MXC (26–31 min retention time) and BaP (32–38 min retention time) were evaporated to dryness and dissolved in hexane (1 ml) and toluol (50 µL), respectively. The collected MXC extracts were further concentrated by solid-phase extraction (SPE, Sep-Pak® Vac 12cc, 2 g, silica cartridges, Waters) using DCM: n-hexane (50:50, v/v) as eluent. Eluent and hexane were used to equilibrate and condition the column before sample loading and subsequent washing with DCM: n-hexane (30:70, v/v). The eluate containing MXC was dried down and reconstituted in toluol (0.5 ml).
(§3) MXC in the organic phase of samples from the in vitro incubations and in DCM extracts of water samples from the in vivo bioconcentration tests were analyzed by gas chromatography-mass spectrometry (GC-MS). The GC-MS system consisted of a HP5890 series II GC coupled to a HP5972 mass sensitive detector (Hewlett-Packard). Separations were performed on 5% phenyl polysilphenylene-siloxane capillary columns (BPX-5, 30 m length x 0.25 mm i. d, 0.25 µm df, SGE). […]

[2] = tested on: common carp; experiment: In vivo bioconcentration test OECD TG 305, carp; design: species or system Cyprinus carpio; settings: for Cf data, concentration measured in individual fish: BaP background corrected
Description: as §1, §2, §3

[3] = in vivo, Cf data, concentration measured in individual fish
[4] = in vivo, common carp, day 7 (uptake), read-out: Mean Cf
[5] = in vivo, common carp, day 14 (uptake), read-out: Mean Cf
[6] = in vivo, common carp, day 21 (uptake), read-out: Mean Cf
[7] = in vivo, common carp, day 28 (uptake), read-out: Mean Cf
[8] = in vivo, common carp, day 35 (end of uptake), read-out: Mean Cf
[9] = in vivo, common carp, read-out: Mean Cf
[10] = common carp (Cyprinus carpio), in vivo
[11] = in vivo, common carp, BaP background corrected, read-out: Cf data, concentration measured in individual fish

c1ccc2c(c1)cc1ccc3cccc4ccc2c1c34 [BaP, benzo[a]pyrene]
concentration at 7 d [1, 3]: 0.204 ng/g | concentration at 14 d [1, 3]: 0.168 ng/g | concentration at 21 d [1, 3]: 0.136 ng/g | concentration at 28 d [1, 3]: 0.13 ng/g | concentration at 35 d [1, 3]: 0.149 ng/g | concentration at 7 d [1, 4]: 0.216 ng/g | concentration at 14 d [1, 5]: 0.172 ng/g | concentration at 21 d [1, 6]: 0.154 ng/g | concentration at 28 d [1, 7]: 0.148 ng/g | concentration at 35 d [1, 8]: 0.153 ng/g | concentration at 40 d [1, 9]: 0.013 ng/g | concentration at 44 d [1, 9]: 0.002 ng/g | concentration at 14 d ([1]; whole fish, other: exposure via water in a flow-through system, common carp, day 14 (uptake), BaP background corrected, read-out: Cf data, concentration measured in individual fish): 0.141 ng/g | Cf,SS concentration in fish at steady-state [2, 10]: 0.157 µg/kg | kB, in vivo estimate Carp [2, 10]: 0.48 day⁻¹ | kB, in vivo estimate, range of 95% probability [2, 10]: 0.16–1.4 | kT depuration rate constant [2, 10]: 0.493 day⁻¹ | kTG growth corrected depuration rate constant [2, 10]: 0.482 day⁻¹ | BCFSSL lipid-normalized steady-state bioconcentration factor ([2]; common carp (Cyprinus carpio), in vivo, 35 d): 73 L/kg

COc1ccc(C(c2ccc(OC)cc2)C(Cl)(Cl)Cl)cc1 [MXC, methoxychlor]
concentration at 7 d ([1]; in vivo, common carp, day 7 (uptake), BaP background corrected, read-out: Cf data, concentration measured in individual fish): 12.8 ng/g | concentration at 7 d [1, 4]: 12.2 ng/g | concentration at 14 d ([1]; in vivo, common carp, day 14 (uptake), BaP background corrected, read-out: Cf data, concentration measured in individual fish): 11.4 ng/g | concentration at 14 d [1, 5]: 9.88 ng/g | concentration at 21 d ([1]; in vivo, common carp, day 21 (uptake), BaP background corrected, read-out: Cf data, concentration measured in individual fish): 9.16 ng/g | concentration at 21 d [1, 6]: 8.56 ng/g | concentration at 28 d ([1]; in vivo, common carp, day 28 (uptake), BaP background corrected, read-out: Cf data, concentration measured in individual fish): 7.02 ng/g | concentration at 28 d [1, 7]: 6.94 ng/g | concentration at 35 d ([1]; in vivo, common carp, day 35 (end of uptake), BaP background corrected, read-out: Cf data, concentration measured in individual fish): 8.35 ng/g | concentration at 35 d [1, 8]: 7.59 ng/g | concentration at 40 d [1, 11]: 3.02 ng/g | concentration at 40 d [1, 9]: 2.4 ng/g | concentration at 44 d [1, 11]: 0.819 ng/g | concentration at 44 d [1, 9]: 0.757 ng/g | Cf,SS concentration in fish at steady-state ([2]; common carp): 8.24 µg/kg | kT depuration rate constant ([2]; common carp): 0.255 day⁻¹ | kTG growth corrected depuration rate constant ([2]; common carp): 0.244 day⁻¹ | BCFSSL lipid-normalized steady-state bioconcentration factor ([2]; common carp, 5% lipid content): 621 L/kg | Cf data, concentration measured in individual fish ([2]; common carp, day 7 (uptake)): 11.7 µg/kg and 10.7 µg/kg and 13.8 µg/kg | Cf data, concentration measured in individual fish ([2]; common carp, day 14 (uptake)): 9.30 µg/kg and 10.0 µg/kg and 8.83 µg/kg | Cf data, concentration measured in individual fish ([2]; common carp, day 21 (uptake)): 9.96 µg/kg and 6.95 µg/kg and 8.16 µg/kg | Cf data, concentration measured in individual fish ([2]; common carp, day 28 (uptake)): 5.90 µg/kg and 7.85 µg/kg and 7.00 µg/kg | Cf data, concentration measured in individual fish ([2]; common carp, day 35 (end of uptake)): 7.32 µg/kg and 7.30 µg/kg and 7.40 µg/kg | Cf data, concentration measured in individual fish ([2]; common carp, day 40 (depuration)): 2.71 µg/kg and 1.73 µg/kg and 2.16 µg/kg | Cf data, concentration measured in individual fish ([2]; common carp, day 44 (depuration)): 0.719 µg/kg and 0.956 µg/kg and 0.535 µg/kg
